Measured values: the CATMoS acute toxicity set (Mansouri et al. 2021)
Where a SMILES comes first, the peptide text is derived from it. [ ]: non-standard residue; d: D form. The star is where a group is joined. Sta = CC(C)C[C@H](N)[C@@H](O)CC(=O)O; Isovaleryl = CC(C)CC(=O)*

Assay: GHS categories as the set defines them, by LD50: 1 up to 5, 2 up to 50, 3 up to 300, 4 up to 2000, 5 above 2000 mg/kg
Conditions: rat; in vivo; po

Row | Structure (SMILES) | GHS category
1 | CC(C)(C)N(Sc1nc2ccccc2s1)Sc1nc2ccccc2s1 | 5
2 | CC(C)C[Si](Cl)(Cl)Cl | 3
3 | CC(C)CC(=O)N[C@H](C(=O)N[C@H](C(=O)N[C@@H](CC(C)C)[C@@H](O)CC(=O)N[C@@H](C)C(=O)N[C@@H](CC(C)C)[C@@H](O)CC(=O)O)C(C)C)C(C)C (Isovaleryl-VV[Sta]A[Sta]-OH) | 5
4 | CC(O)(CC(=O)O)c1ccc(C2CCCCC2)c(Cl)c1 (stereo unspecified) | 4
5 | CC(COc1ccc(Oc2ccccc2)cc1)Oc1ccccn1 (stereo unspecified) | 5
6 | CCCCOC(=O)CCC(C)=O | 5
7 | C[Si](C)(C)O[Si](C)(C)C | 5
8 | Cc1cc(C(=O)Nc2ccccc2C(F)(F)F)n[nH]1 | 5
9 | O=c1[nH]cnc2c1ncn2[C@H]1CC[C@@H](CO)O1 | 5
10 | C=C1CC[C@@]23C[C@@H]1C(C)(C)[C@@H]2C(O)C[C@H]3C (stereo partly specified) | 5
11 | CN(CCO)S(=O)(=O)C(F)(F)C(F)(F)C(F)(F)C(F)(F)F | 5
12 | CC12CCC3c4ccc(OC(=O)c5ccccc5)cc4CCC3C1CCC2OC(=O)CO (stereo unspecified) | 5
13 | O=S(=O)(O)c1ccc2c(ccc3nn(-c4ccc(C=Cc5ccc(-n6cncn6)cc5S(=O)(=O)O)c(S(=O)(=O)O)c4)nc32)c1 | 5
14 | CNS(=O)(=O)c1ccccc1-c1nnc(N)s1 | 5
15 | CC(C)CCCCCCCCCCOCCCN | 4
16 | C=C[Si](C)(N(CC)C(C)=O)N(CC)C(C)=O | 4
17 | CCCCC(CC)COCC(O)COc1ccc(-c2nc(-c3ccc(C)cc3C)nc(-c3ccc(C)cc3C)n2)c(O)c1 (stereo unspecified) | 5
18 | CCCc1nc(C)c2c(=O)nc(-c3cc(S(=O)(=O)N4CCN(CC)CC4)ccc3OCC)[nH]n12 | 5
19 | CCOC(=O)C(=O)Nc1cccc(OC)c1C(N)=O | 5
20 | CCCCCCCC(=O)OCCC(C)C | 5
21 | CCCCCCCC1CCCC(=O)O1 (stereo unspecified) | 5
22 | C[C@@H]1C[C@@H](O)CC(C)(C)C1=O | 5

Row | Structure (SMILES) | GHS category
23 | C[C@@H]1C[C@@H](C)CC(C)(C)C1 | 5
24 | C=CCNC(=O)Oc1cccc2c1OC(C)(C)O2 | 4
25 | Cc1cccc2ncc(C(=O)N3CCCC3)c(=O)n12 | 3
26 | O=CC=Cc1ccco1 | 4
27 | CCCC(=O)c1ccc2[nH]c(=O)oc2c1 | 5
28 | CCCCCCC(=O)OC1CCC2C3CCC4=CC(=O)CCC4(C)C3CCC12C (stereo unspecified) | 4
29 | COC(=O)c1ccc2cc(C(=O)OC)ccc2c1 | 5
30 | CC12CCC3c4ccc(OC(=O)c5ccccc5)cc4CCC3C1CCC2OC(=O)COC(=O)CCCc1ccc(NCCCl)cc1 (stereo unspecified) | 5
31 | CC(C)=CC(C)(C)CC(C)(C)C | 5
32 | O=c1[nH]n(-c2cccc(C(F)(F)F)c2)c2ncccc12 | 4
33 | CCOc1nc(F)cc2nc(S(=O)(=O)Nc3c(Cl)cccc3C(=O)OC)nn12 | 5
34 | O=C(NC(=O)c1c(F)cccc1F)Nc1cc(Cl)c(F)c(Cl)c1F | 5
35 | O=C(NCc1ncc(C(F)(F)F)cc1Cl)c1c(Cl)cccc1Cl | 5
36 | COC(OC)C(C)Cc1ccc(C(C)C)cc1 (stereo unspecified) | 5
37 | C=CCN1CCC23c4c5ccc(O)c4OC2C(=O)CCC3(O)C1C5 (stereo unspecified) | 4
38 | CCC(=O)C(C)CO (stereo unspecified) | 5
39 | CCCc1c(Cc2ccc(-c3ccccc3-c3nn[nH]n3)cc2)c(=O)nc2[nH][nH]c(=O)n12 | 4
40 | O=c1c2n[nH]nc2nc2sc(CCC3CCCCC3)nn12 | 5
41 | Brc1c(Br)c(Br)c(CCc2c(Br)c(Br)c(Br)c(Br)c2Br)c(Br)c1Br | 5
42 | O=c1[nH]c(CCl)nc2sc3c(c12)CCCC3 | 5
43 | CCCCCCCC/C=C\CCCCCCCC(=O)N(C)CC(=O)O | 5
44 | CCOc1nc2cccc(C(=O)O)c2n1Cc1ccc(-c2ccccc2-c2nnn[nH]2)cc1 | 5

Row | Structure (SMILES) | GHS category
45 | CO/C=C(/C(=O)OC)c1ccccc1COc1cccc(C(F)(F)F)n1 | 5
46 | CC1(C)[C@@H](O[C@H]2O[C@H](C(=O)O)[C@@H](O)[C@H](O)[C@H]2O[C@@H]2O[C@H](C(=O)O)[C@@H](O)[C@H](O)[C@H]2O)CC[C@]2(C)[C@H]3C(=O)C=C4[C@@H]5C[C@@](C)(C(=O)O)CC[C@]5(C)CC[C@@]4(C)[C@]3(C)CC[C@@H]12 | 5
47 | CC1CC(OC(=O)C(C)(C)Oc2cccc(C(F)(F)F)c2)CC(C)(C)C1 (stereo unspecified) | 5
48 | CCCCCCCCCCCCCCCC | 5
49 | CC1CC(OC(=O)COc2ccc(I)cc2)CC(C)(C)C1 (stereo unspecified) | 5
50 | BrC1CC(Br)CC(Br)CC(Br)CC(Br)CC(Br)C1 (mixture of isomers) | 5
51 | CCCCn1cc2c3c(cccc31)C1=C[C@@H](CO)CN(C)[C@@H]1C2 | 4
52 | CCCCCC1C(=O)CCC1CC(=O)OC (stereo unspecified) | 5
53 | Cc1c(C)c([N+](=O)[O-])c(C(C)(C)C)c([N+](=O)[O-])c1C | 5
54 | O=C(CCl)OC(=O)CCl | 3
55 | CCC(C)c1cc(S(=O)(=O)O)cc(-n2nc3ccccc3n2)c1O (stereo unspecified) | 5
56 | C[C@@H]1CCN(C(=O)[C@H](CCCNC(=N)N)NS(=O)(=O)c2cccc3c2NC[C@H](C)C3)[C@@H](C(=O)O)C1 | 5
57 | CCCCNc1cc(C(=O)O)cc(S(N)(=O)=O)c1Oc1ccccc1 | 5
58 | O=C1CC(N2C(=O)c3ccccc3C2=O)CC(=O)N1CN1CCOCC1 | 5
59 | CCCCCC(=O)OC | 5
60 | CC(=O)OC1C=C(C)C2CC(=C(C)C)CC2C(C)C1 (stereo unspecified) | 5
61 | COC(=O)c1sc(N)c(C#N)c1C | 5
62 | CCCCCCCCC=COCC | 5
63 | CCOc1ccc(Nc2ccc(C(=C3C=CC(=[N+](CC)Cc4cccc(S(=O)(=O)[O-])c4)C=C3C)c3ccc(N(CC)Cc4cccc(S(=O)(=O)O)c4)cc3C)cc2)cc1 | 5
64 | c1ccc(CSCc2ccccc2)cc1 | 5
65 | NC(=O)c1ccc[n+]([C@@H]2O[C@H](COP(=O)([O-])OP(=O)(O)OC[C@H]3O[C@@H](n4cnc5c(N)ncnc54)[C@H](O)[C@@H]3O)[C@@H](O)[C@H]2O)c1 | 5
66 | C=C(C)C(=O)O[Si](C(C)C)(C(C)C)C(C)C | 5

Row | Structure (SMILES) | GHS category
67 | CCCCCCCCCC | 5
68 | Nc1cc(S(=O)(=O)O)c2cc(S(=O)(=O)O)cc(S(=O)(=O)O)c2c1 | 5
69 | C/C=C\[C@@H]1[C@@H](C(=O)OCc2c(F)c(F)c(COC)c(F)c2F)C1(C)C | 5
70 | CC=CCCC1CCCC(=O)O1 (stereo unspecified) | 5
71 | CC[C@H]1CO[C@@](Cn2cncn2)(c2cc3cc(Cl)ccc3o2)O1 | 4
72 | CC1OC(OC2C(OC(=O)C=Cc3ccc(O)c(O)c3)C(CO)OC3OCC(c4ccc(O)c(O)c4)OC32)C(O)C(O)C1O (stereo unspecified) | 5
73 | CCC/C=C/COC(=O)CC | 5
74 | COc1cc2c(cc1OC)-c1c(C)c3ccc(OC)c(OC)c3c[n+]1CC2 | 4
75 | CC(C)[C@H](N)C(=O)O | 5
76 | CC(=O)NCCCOc1ccc(C(=O)N2CCC(N3C(=O)CCc4ccccc43)CC2)cc1 | 5
77 | Cc1cc(C(=O)Nc2cccc(C(F)(F)F)c2)n[nH]1 | 5
78 | CC1CN(S(=O)(=O)c2cccc3cnccc23)CCN1 (stereo unspecified) | 4
79 | CCC(C)(Oc1ccc(Cl)cc1)C(=O)OC1CC(C)CC(C)(C)C1 (stereo unspecified) | 5
80 | CCCCCCOc1ccc(-c2nc(-c3ccccc3)nc(-c3ccccc3)n2)c(O)c1 | 5
81 | Cn1c(=O)oc2cc(C(=O)c3ccccc3)ccc21 | 5
82 | COc1ccc(-c2cc(=O)c3c(OCCO)cc(O[C@@H]4O[C@H](CO[C@@H]5O[C@@H](C)[C@H](O)[C@@H](O)[C@H]5O)[C@@H](O)[C@H](O)[C@H]4O)cc3o2)cc1O | 5
83 | CC[C@H]1C[C@@H]2CC[C@@H](O2)[C@@H](C)C(=O)O[C@H](CC)C[C@H]2CC[C@H](O2)[C@H](C)C(=O)O[C@@H](CC)C[C@@H]2CC[C@@H](O2)[C@@H](C)C(=O)O[C@H](CC)C[C@H]2CC[C@H](O2)[C@H](C)C(=O)O1 | 5
84 | COC(=O)c1cc(F)ccc1N | 5
85 | CCN(CC)C(=O)C(C)Oc1cccc2ccccc12 (stereo unspecified) | 5
86 | COCCOc1ccccc1S(=O)(=O)N=C(O)N=c1nc(OC)[nH]c(OC)n1 | 5
87 | CC(C)[C@@H]1CC[C@@H](C)C[C@H]1OC(=O)Cc1ccccc1 | 5
88 | COc1ccc2c(c1)CCN(c1ccccc1)C2c1ccc(O)cc1 (stereo unspecified) | 4

Row | Structure (SMILES) | GHS category
89 | CC1CC(OC(=O)C(C)(C)Oc2ccccc2Cl)CC(C)(C)C1 (stereo unspecified) | 5
90 | O=C(O)c1cc(N=Nc2ccc(N=Nc3ccc(S(=O)(=O)O)cc3)cc2)ccc1O | 5
91 | CC1OC(OC2CCC(OC3C(O)CC(c4ccc5c(c4O)C(=O)C4=C(C5=O)C5(O)C(=O)CC(C)(OC6CCC(OC7C=CC(=O)C(C)O7)C(C)O6)CC5(O)C=C4)OC3C)OC2C)C=CC1=O (stereo unspecified) | 4
92 | O=C(O)c1ccccc1C(=O)N1CCSC1 | 5
93 | COc1cc2c(cc1OC)C(c1cccc(Cl)c1)=NN=C(C)C2 | 5
94 | CCCCCCCCCC(C)=O | 5
95 | O=C1c2ccccc2C(=O)N1CC1=Nc2ccccc2Cc2ccccc21 | 5
96 | O=C(c1ccccc1)C1(O)CCCCC1 | 5
97 | O=C1OC(CN2CCOCC2)CC12CC(CN1CCOCC1)OC2=O (stereo unspecified) | 5
98 | CC/C(=C(/c1ccc(OCCN(C)C)cc1)c1cccc(O)c1)c1ccccc1 | 5
99 | O=C(O)C(=O)[C@@H](O)[C@H](O)[C@H](O)CO | 5
100 | CN1C(CSCC(F)(F)F)Nc2cc(Cl)c(S(N)(=O)=O)cc2S1(=O)=O (stereo unspecified) | 2
101 | CCCCCCCCCCCCCCCCCCCCCC(=O)Nc1ccn([C@@H]2O[C@H](CO)[C@@H](O)[C@@H]2O)c(=O)n1 | 4
102 | CCCCOC(=O)c1ccc(-n2nc(OCCN(CC)CC)c3ccccc32)cc1 | 4
103 | CC(=O)Oc1ccccc1C(=O)Oc1cccc(CO[N+](=O)[O-])c1 | 5
104 | O=C(c1ccc(Cl)c(Cl)c1)c1ccccc1-c1ncc[nH]1 | 4
105 | COC(=O)C(CCn1cnc2c(Cl)nc(N)nc21)C(=O)OC | 5
106 | CC(OC(=O)ON1C(=O)CCC1=O)OC(=O)C(C)C (stereo unspecified) | 4
